Measurements taken from patent publication US12491233B2, “Pharmaceutical composition, for preventing or treating Charcot-Marie-Tooth disorder, comprising mesenchymal stem cells or insulin secreted by mesenchymal stem cells” (SAMSUNG LIFE PUBLIC WELFARE FOUNDATION, priority 2020, dated 2025).

Experiments:
[1] = test system: Charcot-Marie-Tooth disease mice; experiment: Rotarod testing in Charcot-Marie-Tooth disease mice; type: in vivo
Text: 5-Week-old Charcot-Marie-Tooth disease mice were intravenously administered with 12 U/kg insulin and, after two weeks, examined for behavioral performance increase through rotarod testing as in Example 5.

Schwann cells [2] = experiment: ATP measurement, CellTiter-Glo Luminescent Cell Viability Assay; type: cell-based; conditions: relative to 0 nM = 1
Procedure: (§1) The cultured Schwann cells were treated with insulin at 0, 1, 10, 50, 100, 200, 500, or 1000 nM, and then the degree of cell proliferation was determined by measurement of the absorbance at 450 nm using a spectrophotometer by using the CCK-8 (Dojindo) test method. ATP was measured using the CellTiter-Glo Luminescent Cell Viability Assay (Promega Corporation), and finally, 5-bromo-2′-deoxyuridine (BrdU) bound during DNA synthesis in cells was identified. In this test method, analysis was performed using Cell Proliferation ELISA, BrdU (colorimetric) (Roche). BrdU was added to the cells, followed by incubation for 24 hours, and then the cells were fixed, followed by DNA denaturation, and then treated with Anti-BrdU antibody. The cells were incubated with TMB substrate by using HRP-linked secondary antibody, and the absorbance at 370 nm was measured in a spectrophotometer.

Dystrophin = experiment: Myogenesis of gastrocnemius muscle tissue, dystrophin fluorescent antibody; type: in vivo, mice
Procedure: 5-Week-old Charcot-Marie-Tooth disease mice were intravenously administered with 12 U/kg insulin, and after two weeks, the gastrocnemius muscle tissue was collected. Then, the increase in myogenesis was measured using the dystrophin antibody by the same method as in protein expression analysis using a fluorescent antibody in Example 7, and the results are shown in FIGS. 9A and 9B and Table 16.

PMP22 = PMP22 gene expression in sciatic nerve tissue by qRT-PCR; type: in vivo, mice
Procedure: In addition, it was examined using qRT-PCR analysis whether specific genes observable in each type of differentiated cells were expressed in differentiated adipocytes and chondrocytes. Non-differentiated cells and differentiated cells were harvested and the total RNA was extracted from the cell pellets using TRIZOL. The pellets were completely dissolved in 1 mL of TRIZOL, and then 0.2 mL of chloroform was added thereto, followed by shaking for 15 seconds and then standing at room temperature for 3 minutes. The resultant product was then separated into the bottom layer phenol-chloroform, the intermediate layer, and the upper layer colorless aqueous solution by centrifugation at 13,000 rpm and 4° C. for 15 minutes, and of these, only the upper layer colorless aqueous solution was separately collected and transferred into a new tube. After 0.5 mL of isopropyl alcohol was added to the tube and then vigorously mixed, the mixture was left at room temperature for 5 minutes. The resultant solution was again centrifuged at 13,000 rpm and 4° C. for 10 minutes, and the supernatant was discarded. Thereafter, 75% ethanol was added to pellets and again vigorously mixed, followed by centrifugation. The upper layer was discarded, and RNA pellets were dried for 5-10 minutes and dissolved in RNase-free water. […]

ERK and Akt pathways = experiment: Western blot of P-ERK1/2, ERK1/2, P-AKT, AKT in insulin-treated Schwann cells; type: cell-based; conditions: 100 nM insulin, 24 hours
Procedure: After the cultured Schwann cells were treated with 100 nM insulin protein, the cells were harvested after 24 hours, and then the pellets were added in RIPA buffer, and the cells were disrupted using a sonicator and then centrifuged at 13,000 rpm at 4° C. for 15 minutes. Only the supernatant was subjected to protein quantification, and then 30 μg of proteins was loaded onto SDS-PAGE gel. Thereafter, the gel loaded on PVDF was transferred and then blocked with 5% skim milk for 1 hour, and then P-ERK1/2, ERK1/2, P-AKT, AKT, and β-actin antibodies were attached thereto at 4° C. for 24 hours. After the HRP-linked secondary antibody reaction and the washing process were performed, the bands of proteins were checked by using ECL solution.

Schwann cells [3] = experiment: CCK-8 cell proliferation of insulin-treated Schwann cells; type: cell-based; conditions: for CCK-8: relative to 0 nM = 1
Procedure: as §1

[4] = test system: Charcot-Marie-Tooth disease mice; experiment: Myelination of sciatic nerve tissue by transmission electron microscope; type: in vivo
Text: 5-Week-old Charcot-Marie-Tooth disease mice were intravenously administered with 12 U/kg insulin, and after two weeks, the sciatic nerve tissue was collected and observed by the same method as in the histological analysis through a transmission electron microscope in Example 7, and the results are shown in FIGS. 8A to 8C and Tables 12 and 13.

Schwann cells [5] = experiment: BrdU Cell Proliferation ELISA (colorimetric); type: cell-based; conditions: relative to 0 nM = 1
Procedure: as §1

MPZ [6] = experiment: MPZ expression level in sciatic nerve tissue by western blotting; type: in vivo, mice; conditions: 12 U/kg intravenously, after two weeks, WT = 100, sham 3.84
Procedure: 5-Week-old Charcot-Marie-Tooth disease mice were intravenously administered with 12 U/kg insulin, and after two weeks, the sciatic nerve tissue was collected and then the MPZ expression level was determined using MPZ antibody by the same method as in protein expression analysis through western blotting in Example 3, and the results are shown in FIGS. 8F and 8G and Table 15.

MPZ [7] = experiment: MPZ in sciatic nerve tissue by confocal microscope; type: in vivo, mice; conditions: 12 U/kg intravenously, after two weeks, WT = 1, sham 0.20
Text: 5-Week-old Charcot-Marie-Tooth disease mice were intravenously administered with 12 U/kg insulin, and after two weeks, the sciatic nerve tissue was collected and observed through a confocal microscope in Example 7, and the results are shown in FIG. 8D and Table 14.

[8] = test system: Charcot-Marie-Tooth disease mice; experiment: MRI of gastrocnemius muscle tissue, cross-sectional area and volume; type: in vivo; conditions: 12 U/kg intravenously, after two weeks; for CSA: MRI; for Volume: from cross-sectional area
Procedure: 5-Week-old Charcot-Marie-Tooth disease mice were intravenously administered with 12 U/kg insulin and, after two weeks, the gastrocnemius muscle tissue was observed by the MRI system. In addition, the cross-sectional area of the muscle tissue was measured to obtain the volume of the muscle tissue, and the results are shown in FIG. 9E and Table 18.

[9] = test system: Charcot-Marie-Tooth disease mice; experiment: Grip strength testing in Charcot-Marie-Tooth disease mice; type: in vivo; conditions: 5-week-old CMT mice, 12 U/kg intravenously, after two weeks; WT 8.9, sham 6.2
Text: 5-Week-old Charcot-Marie-Tooth disease mice were intravenously administered with 12 U/kg insulin and, after two weeks, examined for behavioral performance increase through grip strength testing as in Example 5.

In the case of insulin, the Rotarod ([1]; 5-week-old CMT mice, 12 U/kg intravenously, after two weeks, WT 112.3, sham 27.8) is reported as 67.9, the “behavioral performance of the mice” value ([1]; rotarod and grip strength, in words) is reported as “increased the behavioral performance” and the ATP (Schwann cells [2]; insulin 1 nM) is reported as 1.08. It also gave an ATP (Schwann cells [2]; insulin 10 nM) of 1.13, an ATP (Schwann cells [2]; insulin 50 nM) of 1.20 and an ATP (Schwann cells [2]; insulin 100 nM) of 1.23. It also gave an ATP (Schwann cells [2]; insulin 200 nM) of 1.18, an ATP (Schwann cells [2]; insulin 500 nM) of 1.22 and an ATP (Schwann cells [2]; insulin 1000 nM) of 1.06. For the same substance, the Dystrophin (Dystrophin; gastrocnemius muscle, 12 U/kg intravenously, after two weeks, WT = 1, sham 0.27) was 0.94, the myogenesis (Dystrophin; in words, FIGS. 9A to 9E) was “increased myogenesis” and the PMP22 expression levels (PMP22; in words) was “reduced the PMP22 expression levels”. For the same substance, the PMP22 (PMP22; sciatic nerve, 12 U/kg intravenously, after two weeks, WT = 1, sham 1305.36) was 986.69, the “activation of proliferation potency of Schwann cells through ERK and Akt pathways” value (ERK and Akt pathways) was “activated the proliferation potency of Schwann cells through ERK and Akt pathways” and the “optimum concentration for increasing the proliferation capacity of Schwann cells” value (Schwann cells [3]; from CCK-8, ATP and BrdU tests, 0-1000 nM) was 100 nM. The CCK-8 (Schwann cells [3]; insulin 1 nM) was 1.03, the CCK-8 (Schwann cells [3]; insulin 10 nM) was 1.09 and the CCK-8 (Schwann cells [3]; insulin 50 nM) was 1.16. For the same substance, the CCK-8 (Schwann cells [3]; insulin 100 nM) was 1.18, the CCK-8 (Schwann cells [3]; insulin 200 nM) was 1.19 and the CCK-8 (Schwann cells [3]; insulin 500 nM) was 1.21. For the same substance, the CCK-8 (Schwann cells [3]; insulin 1000 nM) was 1.21, the myelination ([4]; in words, FIGS. 8A to 8G) was “increased myelination” and the myelination ([4]; sciatic nerve, TEM, 12 U/kg intravenously, after two weeks, WT = 100, sham 13.59) was 82.99. For the same substance, the Thickness ([4]; thickness of myelination, sciatic nerve, TEM, 12 U/kg intravenously, after two weeks, WT 3.32, sham 0.67) was 2.53, the BrdU (Schwann cells [5]; insulin 1 nM) was 1.13 and the BrdU (Schwann cells [5]; insulin 10 nM) was 1.32. The BrdU (Schwann cells [5]; insulin 50 nM) was 1.39, the BrdU (Schwann cells [5]; insulin 100 nM) was 1.51 and the BrdU (Schwann cells [5]; insulin 200 nM) was 1.50. The BrdU (Schwann cells [5]; insulin 500 nM) was 1.36, the BrdU (Schwann cells [5]; insulin 1000 nM) was 1.44 and the MPZ (MPZ [6]) was 44.12. The MPZ (MPZ [7]) was 0.69, the CSA ([8]; Left gastrocnemius muscle, sham 0.302) was 0.343 and the Volume ([8]; Left gastrocnemius muscle, sham 2.533) was 2.879. For the same substance, the CSA ([8]; Right gastrocnemius muscle, sham 0.290) was 0.323, the Volume ([8]; Right gastrocnemius muscle, sham 2.438) was 2.712 and the “Grip Strength” value [9] was 7.7.
